Patent US8604044B2, “Quinazoline based EGFR inhibitors containing a zinc binding moiety” (Curis, Inc., priority 2006, dated 2013)
Values belong to the compound of their own block, whether it stands above or below them.

Legend:
human EGFR = target: T1, human EGFR (Homo sapiens, UniProt P00533); assay: HTScan EGF Receptor Kinase Assay; assay type: biochemical; conditions: for IC50: read-out: EGFR IC50 grading
T1 construct: human EGFR (His672-Ala1210); purchased Cell Signaling Technologies; host or cells: baculovirus expression system
Protocol: The ability of compounds to inhibit receptor kinase (EGFR) activity was assayed using HTScan™ EGF Receptor Kinase Assay Kits (Cell Signaling Technologies, Danvers, Mass.). […] The protein was purified by one-step affinity chromatography using glutathione-agarose.
Immediately transfer enzyme from −80° C. to ice. Allowed enzyme to thaw on ice. […] Returned immediately to ice. […] Incubated reaction plate at room temperature for 30 minutes. […] Added 100 μl/well primary antibody. Incubated at room temperature for 60 minutes. […] Added 100 μl/well diluted antibody. Incubated at room temperature for 30 minutes. […] Incubated at room temperature for 5 minutes.

HER2 = target: T2, HER2 (Homo sapiens, UniProt P04626); assay: Radioisotope assay for HER2; assay type: biochemical; conditions: read-out: HER2/ErB2 IC50 grading
T2 construct: human HER2 amino acids 679-1255; host or cells: baculovirus in Sf9 insect cells
Protocol: Protocol for Radioisotope Assay for HER2
10 nM HER2 and 0.1 mg/ml polyEY were placed in the reaction buffer and 2 mM MnCl2, 1 μM ATP and 1% DMSO final were added. The reaction mixture was incubated for 2 hours at room temperature.
MW=91.6 kDa. […] Enzyme is in 25 mM Tris-HCl, pH 8.0, 100 mM NaCl, 0.05% Tween-20, 50% glycerol, 10 mM reduced glutathione, and 3 mM DTT.

HDAC = HDAC fluorimetric assay (HDAC enzymatic activity, HeLa nuclear extract); assay type: biochemical; conditions: for IC50: HeLa nuclear extract, read-out: HDAC IC50 grading
A549 NSCLC Xenograft = assay: A549 NSCLC xenograft model; assay type: in vivo, mice; conditions: FIG. 11B
Protocol: 1-10×10^6 human cancer cells were implanted subcutaneously to the athymic (nu/nu) mice. When the tumors reached about 100 mm^3 in volume, the mice were treated with the compound by tail vein infusion. Routinely 5 groups (8-12 mice per group) are needed for a typical efficacy study, including one negative control, one positive control, and three testing groups for 3 dose levels of the same compound. Usually a 7-7-5 (on-off-on) regimen was used for one typical study. The tumor size was measured with an electronic caliper and body weight measured with a scale twice weekly. The tumors were removed from euthanized mice at the end of the study. One half of each tumor was frozen in dry ice and stored at −80° C. for PK or Western blot analysis. The other half was fixed with formalin. The fixed tissues were processed, embedded in paraffin and sectioned for immunohistochemistry staining.

T2 sequence (P04626 679-1255): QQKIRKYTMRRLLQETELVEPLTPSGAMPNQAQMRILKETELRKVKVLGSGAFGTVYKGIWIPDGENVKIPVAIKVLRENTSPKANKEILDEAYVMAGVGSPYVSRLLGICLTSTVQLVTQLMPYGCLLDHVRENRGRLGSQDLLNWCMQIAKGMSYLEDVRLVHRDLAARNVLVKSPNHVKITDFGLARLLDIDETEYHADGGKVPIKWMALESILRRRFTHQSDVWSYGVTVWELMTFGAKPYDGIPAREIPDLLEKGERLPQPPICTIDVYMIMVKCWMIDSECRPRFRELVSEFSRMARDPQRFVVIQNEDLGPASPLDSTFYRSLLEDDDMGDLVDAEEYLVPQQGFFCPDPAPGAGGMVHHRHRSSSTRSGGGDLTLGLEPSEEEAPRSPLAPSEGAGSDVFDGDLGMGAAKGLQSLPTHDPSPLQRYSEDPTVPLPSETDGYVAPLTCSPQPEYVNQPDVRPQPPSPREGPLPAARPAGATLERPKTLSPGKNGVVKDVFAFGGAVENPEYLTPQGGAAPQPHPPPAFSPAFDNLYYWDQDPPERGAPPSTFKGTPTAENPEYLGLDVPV
T1 sequence (P00533 672-1210): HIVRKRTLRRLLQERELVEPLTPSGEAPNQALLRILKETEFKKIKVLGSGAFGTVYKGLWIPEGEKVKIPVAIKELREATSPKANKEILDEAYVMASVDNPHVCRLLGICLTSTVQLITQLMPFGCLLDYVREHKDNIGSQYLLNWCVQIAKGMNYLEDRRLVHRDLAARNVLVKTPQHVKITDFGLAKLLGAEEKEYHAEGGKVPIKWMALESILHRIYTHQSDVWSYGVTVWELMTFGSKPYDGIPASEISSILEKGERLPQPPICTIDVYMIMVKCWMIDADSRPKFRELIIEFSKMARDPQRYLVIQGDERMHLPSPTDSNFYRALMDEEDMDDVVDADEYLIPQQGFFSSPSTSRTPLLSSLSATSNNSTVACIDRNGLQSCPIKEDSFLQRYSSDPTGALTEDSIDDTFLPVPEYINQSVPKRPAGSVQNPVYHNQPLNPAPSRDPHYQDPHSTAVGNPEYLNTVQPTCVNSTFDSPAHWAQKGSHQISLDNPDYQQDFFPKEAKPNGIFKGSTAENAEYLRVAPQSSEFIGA

Compound: COc1cc2ncnc(Nc3ccc(F)c(Cl)c3)c2cc1SCCCCC(=O)NO [Compound 151, 5-(4-(3-chloro-4-fluorophenylamino)-7-methoxyquinazolin-6-ylthio)-N-hydroxypentanamide]
- IC50 (human EGFR): < 0.1 µM
- IC50 (HER2): < 0.1 µM

Compound: C#Cc1cccc(Nc2ncnc3cc(OCCCCCCC(=O)NO)c(OC)cc23)c1 [Compound 162, 7-(4-(3-ethynylphenylamino)-6-methoxyquinazolin-7-yloxy)-N-hydroxyheptanamide]
- IC50 (human EGFR): < 0.1 µM
- IC50 (HER2): 0.1 to 1 µM
- IC50 (HDAC): < 0.1 µM

Compound: C#Cc1cccc(Nc2ncnc3cc(OCCCCCCC(=O)NO)c(OCCOC)cc23)c1 [Compound 168, 7-(4-(3-ethynylphenylamino)-6-(2-methoxyethoxy)quinazolin-7-yloxy)-N-hydroxyheptanamide]
- IC50 (human EGFR): < 0.1 µM
- IC50 (HER2): 0.1 to 1 µM
- IC50 (HDAC): < 0.1 µM

Compound: C#Cc1cccc(Nc2ncnc3cc(OCCOC)c(OCCOC)cc23)c1 [Erlotinib]
- effect on tumor size as compared to control (A549 NSCLC Xenograft): did not significantly affect tumor size

Compound: O=C(CCCCCCNCc1ccc(-c2ccc3ncnc(Nc4ccc(OCc5cccc(F)c5)c(Cl)c4)c3c2)o1)NO [Compound 178, 7-((5-(4-(3-chloro-4-(3-fluorobenzyloxy)phenylamino)quinazolin-6-yl)furan-2-yl)methylamino)-N-hydroxyheptanamide]
- IC50 (HDAC): 0.1 to 1 µM
- melting point: 120 °C

Compound: COc1cc2ncnc(Nc3ccc(F)c(Cl)c3)c2cc1OCCCCCCN(O)C(N)=O [Compound 102]
- IC50 (human EGFR): < 0.1 µM

Compound: COc1cc2ncnc(Nc3ccc(F)c(Cl)c3)c2cc1SCCCCCCC(=O)NO [Compound 155, 7-(4-(3-Chloro-4-fluorophenylamino)-7-methoxyquinazolin-6-ylthio)-N-hydroxyheptanamide]
- IC50 (human EGFR): < 0.1 µM
- IC50 (HER2): < 0.1 µM

Compound: COc1cc2ncnc(N[C@H](C)c3ccc(F)cc3)c2cc1OCCCCCCC(=O)NO [Compound 81, (R)-7-(4-(1-(4-fluorophenyl)ethylamino)-7-methoxyquinazolin-6-yloxy)-N-hydroxyheptanamide]
- IC50 (HDAC): 0.1 to 1 µM
- melting point: 118.2 to 144.3 °C

Compound: O=C(CCCCCCCNCc1ccc(-c2ccc3ncnc(Nc4ccc(OCc5cccc(F)c5)c(Cl)c4)c3c2)o1)NO [Compound 201]
- IC50 (human EGFR): < 0.1 µM
- IC50 (HER2): < 0.1 µM
- IC50 (HDAC): 0.1 to 1 µM

Compound: COc1cc2ncnc(Nc3ccc(F)c(Cl)c3)c2cc1OCCCCCCC(=O)NO [Compound 6, 7-(4-(3-Chloro-4-fluorophenylamino)-7-methoxyquinazolin-6-yloxy)-N-hydroxyheptanamide]
- activity in EFGR enzyme assay compared with erlotinib (human EGFR; FIG. 1): more active
- IC50 (HER2): < 0.1 µM
- activity in HDAC enzyme assay compared with SAHA (HDAC; FIG. 1): more active
- IC50 (HDAC): < 0.1 µM

Compound: COc1cc2ncnc(Nc3ccc(OCc4cccc(F)c4)c(Cl)c3)c2cc1OCCCCCCC(=O)NO [Compound 199, 7-(4-(3-chloro-4-(3-fluorobenzyloxy)phenylamino)-7-methoxyquinazolin-6-yloxy)-N-hydroxyheptanamide]
- IC50 (human EGFR): < 0.1 µM
- IC50 (HER2): < 0.1 µM
- IC50 (HDAC): < 0.1 µM

Results, then the compound that gave them:

- IC50 (human EGFR): < 0.1 µM
- IC50 (HER2): 0.1 to 1 µM
- IC50 (HDAC): < 0.1 µM
Compound: COCCOc1cc2c(Nc3ccc(F)c(Cl)c3)ncnc2cc1OCCCCCCC(=O)NO [Compound 167, 7-(4-(3-chloro-4-fluorophenylamino)-6-(2-methoxyethoxy)quinazolin-7-yloxy)-N-hydroxyheptanamide]

- IC50 (HDAC): < 0.1 µM
- melting point: 176 to 182 °C
Compound: C#Cc1cccc(Nc2ncnc3ccc(OCCCCCC(=O)NO)cc23)c1 [Compound 23, 6-(4-(3-ethynylphenylamino)quinazolin-6-yloxy)-N-hydroxyhexanamide]

- IC50 (HDAC): 0.1 to 1 µM
- melting point: 85.9 °C
Compound: O=C(CCCCOc1ccc2ncnc(Nc3ccc(F)c(Cl)c3)c2c1)NO [Compound 16, 5-(4-(3-chloro-4-fluorophenylamino)quinazolin-6-yloxy)-N-hydroxypentanamide]

- IC50 (human EGFR): < 0.1 µM
- IC50 (HER2): < 0.1 µM
- IC50 (HDAC): 0.1 to 1 µM
- melting point: 121 °C
Compound: O=C(CCCCCNCc1ccc(-c2ccc3ncnc(Nc4ccc(OCc5cccc(F)c5)c(Cl)c4)c3c2)o1)NO [Compound 177, 6-((5-(4-(3-chloro-4-(3-fluorobenzyloxy)phenylamino)quinazolin-6-yl)furan-2-yl)methylamino)-N-hydroxyhexanamide]

- IC50 (HDAC): 1 to 10 µM
- melting point: 182 to 186 °C
Compound: C#Cc1cccc(Nc2ncnc3ccc(OCCCC(=O)NO)cc23)c1 [Compound 21, 4-(4-(3-ethynylphenylamino)quinazolin-6-yloxy)-N-hydroxybutanamide]

- IC50 (human EGFR): < 0.1 µM
- IC50 (HER2): < 0.1 µM
Compound: C#Cc1cccc(Nc2ncnc3cc(O)c(OCCCCCCC(=O)NO)cc23)c1 [Compound 207]

- IC50 (HDAC): < 0.1 µM
- melting point: 128 to 132 °C
Compound: O=C(CCCOc1ccc2ncnc(Nc3ccc(F)c(Cl)c3)c2c1)NO [Compound 15, 4-(4-(3-chloro-4-fluorophenylamino)quinazolin-6-yloxy)-N-Hydroxybutanamide]

- IC50 (human EGFR): < 0.1 µM
- IC50 (HER2): < 0.1 µM
- IC50 (HDAC): < 0.1 µM
Compound: O=C(CCCCCCOc1ccc2ncnc(Nc3ccc(OCc4cccc(F)c4)c(Cl)c3)c2c1)NO [Compound 198, 7-(4-(3-chloro-4-(3-fluorobenzyloxy)phenylamino)quinazolin-6-yloxy)-N-hydroxyheptanamide]

- IC50 (HDAC): > 10 µM
- melting point: 189 to 191 °C
Compound: C#Cc1cccc(Nc2ncnc3ccc(OCC(=O)NO)cc23)c1 [Compound 19, 2-(4-(3-ethynylphenylamino)quinazolin-6-yloxy)-N-hydroxyacetamide]

- IC50 (HDAC): > 10 µM
- melting point: 170 °C
Compound: O=C(CCNCc1ccc(-c2ccc3ncnc(Nc4ccc(OCc5cccc(F)c5)c(Cl)c4)c3c2)o1)NO [Compound 174, 3-((5-(4-(3-Chloro-4-(3-fluorobenzyloxy)phenylamino)quinazolin-6-yl)furan-2-yl)methylamino)-N-hydroxypropanamide]

- IC50 (human EGFR): < 0.1 µM
- IC50 (HER2): < 0.1 µM
- IC50 (HDAC): < 0.1 µM
Compound: COCCOc1cc2ncnc(Nc3ccc(OCc4cccc(F)c4)c(Cl)c3)c2cc1OCCCCCCC(=O)NO [Compound 200]

- IC50 (HER2): 1 to 10 µM
- IC50 (HDAC): < 0.1 µM
- melting point: 143.1 °C (dec.)
Compound: COc1cc2ncnc(NCc3ccc(F)c(Cl)c3)c2cc1OCCCCCCC(=O)NO [Compound 88, 7-(4-(3-chloro-4-fluorobenzylamino)-7-methoxyquinazolin-6-yloxy)-N-hydroxyheptanamide]

- IC50 (human EGFR): < 0.1 µM
- IC50 (HER2): < 0.1 µM
- IC50 (HDAC): < 0.1 µM
Compound: C#Cc1cc(Nc2ncnc3cc(OC)c(OCCCCCCC(=O)NO)cc23)ccc1O [Compound 206]
